Legend:
[1] = Antioxidant activity by ferric reducing antioxidant power assay; format: functional
[2] = system: Radical scavenging activity; assay: Antioxidant activity assessed as DPPH radical scavenging activity by Brand-Williams method; format: functional

Row | Compound | Activity [1] [µM] | Activity [2] [µM]
1 | Cc1cc(C(C)(C)C)c(O)c(C(C)(C)C)c1 | 677 | 637
2 | O=C1O[C@H]([C@@H](O)CO)C(O)=C1O | 824 | 903
3 | C/C=C/CC[S+]([O-])C[C@@H](N)C(=O)O (stereo partly specified) | 178 | 107

Source: ChEMBL document CHEMBL1151713, “S-alkenyl cysteine sulfoxide and its antioxidant properties from Allium cepa var. tropeana (red onion) seeds” (J Nat Prod, 2008)
